Reference: patent publication US20110104662A1, “Methods of Detecting Inhibitors of VIF-Mediated APOBEC3G Degradation and HIV” (RIGEL PHARMACEUTICALS, INC., priority 2007, published 2011)
Where a SMILES comes first, the peptide text is derived from it. The star is where a group is joined. Cbz = O=C(OCc1ccccc1)*

Legend:
A3G-luciferase (A3G-luc) [1] = test: APOBEC3G-luciferase activity in 293T cell lysate of co-transfected virus producer cells; type: cell-based; conditions: 10 uM MG132
Text: (§1) In all embodiments employing cotransfection of a wild-type or Δvif HIV genome together with an APOBEC3G-fluorescent reporter fusion, adjusting the relative ratio of plasmids encoding the wild-type (WT) or Δvif HIV genomes and A3G-luciferase (A3G-luc) for cotransfection in virus producer cells (e.g., 293T cells) is useful for achieving an optimal signal to background ratio and dynamic assay range for antiviral compound characterization. Adjusting the cotransfection ratio is also useful for obtaining a linear correlation between the fluorescent reporter (e.g., luciferase) signal and the level of A3G-fluorescent reporter protein detected by Western blotting. The luciferase activity ratio of (Δvif HIV+A3G-luc) over (WT HIV+A3G-luc) in both virus supernatant and 293T cell lysates was measured.
(§2) 293T cells were seeded in 6-well plates at 500,000 cells/well density. On the second day, 4 μg of wild-type or delta vif HIV-1 construct and pcDNA3.1-APOBEC3G-luciferase construct plasmid DNA were co-transfected into 293T cells using Lipofectamine 2000 (Invitrogen). On the third day, cells were detached with trypsin and plated into 24-well plates at 300,000 cells/well density. On the fourth day, medium was replaced in each well with either 0.5% DMSP medium or with compound and 0.5% DMSO containing medium.
Twenty hours post dosing, the virus producing 293T cells of Example 5 were lysed with 200 μL of Bright-Glo lysis buffer in 24-well plates. Cell lysates were diluted 1:100 in PBS. 10 μL of each lysate sample were transferred to small well 96-well plates and 10 μL of Bright-Glo substrate were added to each well. The luciferase activity from the cell lysates was then detected using a Top Count reader. The total protein concentration was determined using the Quant-IT Protein Assay Kit (Molecular Probes). The luciferase activity was normalized relative to total cellular protein by dividing the background corrected luciferase light units by the total protein concentration.

[2] = tested on: Vif-mediated APOBEC3G degradation; test: Cell-based screening assay, Vif/APOBEC3G-luciferase HeLa line; set-up: species or system HIV; conditions: 10 μM MG132 for 24 hours; selected blasticidin-resistant Vif/APOBEC3G-luciferase HeLa clone
Text: Inhibitors of Vif-mediated APOBEC3G degradation were screened using a cell-based assay. The assay uses HeLa cells that stably expresses Vif and APOBEC3G fused at its C-terminus to firefly luciferase. Under steady-state conditions, there is very little luciferase activity. When degradation of the APOBEC3G-luciferase fusion is inhibited, a significant increase in the luciferase activity is observed.
Construction of screening line (Vif/APOBEC3G-luciferase HeLa line). HeLa cells were cotransfected with a 1:1 ratio of pcDNA6-Vif and pcDNA3.1-APOBEC3G-luciferase plasmids using Fugene transfection reagent. Twenty-four hours after transfection, cells were trypsinized and different dilutions plated on 10 cm dishes. After attachment, stable transfectants were selected using medium containing 10 μg/ml blasticidin S. The blasticidin resistance gene is carried in the pcDNA6-Vif plasmid. Individual clones were plated in duplicate 96-well plates, treated with either DMSO or 10 μM MG132 for 24 hours, and then assayed for luciferase activity. […] The presence of Vif and APOBEC3G-luciferase proteins was confirmed by treating cells with 10 μM MG132 overnight and analyzing cell lysates for both Vif and APOBEC3G-luciferase by western blotting (See FIG. 7B).

A3G-luciferase (A3G-luc) [3] = test: APOBEC3G-luciferase activity in virus supernatant of co-transfected 293T cells; type: cell-based; conditions: 10 uM MG132
Text: as §1, §2
Twenty hours post dosing, the culture supernatant from Example 5 was harvested and filtered through a 0.45μ filter. Twenty microliters of virus supernatant from each sample were transferred into a 96-Well plate. 30 μL of culture medium and 50 μL of Bright-Glo lysis buffer (Promega), were added to each well, followed by 50 μL of Bright-Glo Substrate (Promega). The luciferase activity from the virus supernatant was then detected using a Top Count reader (Perkin Elmer). The concentration of virus particles in the supernatant was determined by p24 ELISA (Perkin Elmer). The luciferase activity of the virus supernatant was then normalized relative to the concentration of virus particles by dividing the background corrected luciferase light units by the p24 values.

[4] = Experiment 1, co-transfection ratio 19:1
[5] = Experiment 1, co-transfection ratio 39:1
[6] = Experiment 1, co-transfection ratio 79:1
[7] = Experiment 1, co-transfection ratio 159:1
[8] = Experiment 2, co-transfection ratio 19:1
[9] = Experiment 2, co-transfection ratio 39:1
[10] = Experiment 2, co-transfection ratio 79:1
[11] = Experiment 2, co-transfection ratio 159:1

## CC(C)C[C@@H](C=O)NC(=O)[C@H](CC(C)C)NC(=O)[C@H](CC(C)C)NC(=O)OCc1ccccc1 [MG132] (Cbz-Leu-Leu-Leu-aldehyde)
A3G-luciferase (A3G-luc) [1]; [4]
  RLU ratio (delta vif HIV + A3G-luc/WT HIV + A3G-luc), 293 T cell lysate (RLU): 2.6
A3G-luciferase (A3G-luc) [1]; [5]
  RLU ratio (delta vif HIV + A3G-luc/WT HIV + A3G-luc), 293 T cell lysate (RLU): 2.4
A3G-luciferase (A3G-luc) [1]; [6]
  RLU ratio (delta vif HIV + A3G-luc/WT HIV + A3G-luc), 293 T cell lysate (RLU): 3.7
A3G-luciferase (A3G-luc) [1]; [7]
  RLU ratio (delta vif HIV + A3G-luc/WT HIV + A3G-luc), 293 T cell lysate (RLU): 6.8
A3G-luciferase (A3G-luc) [1]; [8]
  RLU ratio (delta vif HIV + A3G-luc/WT HIV + A3G-luc), 293 T cell lysate (RLU): 1.4
A3G-luciferase (A3G-luc) [1]; [9]
  RLU ratio (delta vif HIV + A3G-luc/WT HIV + A3G-luc), 293 T cell lysate (RLU): 1.8
A3G-luciferase (A3G-luc) [1]; [10]
  RLU ratio (delta vif HIV + A3G-luc/WT HIV + A3G-luc), 293 T cell lysate (RLU): 2.9
A3G-luciferase (A3G-luc) [1]; [11]
  RLU ratio (delta vif HIV + A3G-luc/WT HIV + A3G-luc), 293 T cell lysate (RLU): 8.7
[2]
  window in luciferase activity between DMSO and MG132: at least a ten-fold window in luciferase activity
A3G-luciferase (A3G-luc) [3]; [4]
  RLU ratio (delta vif HIV + A3G-luc/WT HIV + A3G-luc), Virus sup. (RLU): 3.2
A3G-luciferase (A3G-luc) [3]; [5]
  RLU ratio (delta vif HIV + A3G-luc/WT HIV + A3G-luc), Virus sup. (RLU): 5.5
A3G-luciferase (A3G-luc) [3]; [6]
  RLU ratio (delta vif HIV + A3G-luc/WT HIV + A3G-luc), Virus sup. (RLU): 5.9
A3G-luciferase (A3G-luc) [3]; [7]
  RLU ratio (delta vif HIV + A3G-luc/WT HIV + A3G-luc), Virus sup. (RLU): 4.7
A3G-luciferase (A3G-luc) [3]; [8]
  RLU ratio (delta vif HIV + A3G-luc/WT HIV + A3G-luc), Virus sup. (RLU): 9.2
A3G-luciferase (A3G-luc) [3]; [9]
  RLU ratio (delta vif HIV + A3G-luc/WT HIV + A3G-luc), Virus sup. (RLU): 3.9
A3G-luciferase (A3G-luc) [3]; [10]
  RLU ratio (delta vif HIV + A3G-luc/WT HIV + A3G-luc), Virus sup. (RLU): 16.8
A3G-luciferase (A3G-luc) [3]; [11]
  RLU ratio (delta vif HIV + A3G-luc/WT HIV + A3G-luc), Virus sup. (RLU): 9.2
